Results reported in ChEMBL document CHEMBL3627668, “Structure-activity relationships of furazano[3,4-b]pyrazines as mitochondrial uncouplers” (Bioorg Med Chem Lett, 2015).

Tests used:
L6 [1] = experiment: Induction of mitochondrial uncoupling in rat L6 cells assessed as stimulation of cellular oxygen consumption; type: functional, cell-based
L6 [2] = experiment: Induction of mitochondrial uncoupling in rat L6 cells assessed as stimulation of cellular oxygen consumption relative to control; type: functional
[3] = Rattus norvegicus, L6, read-out: EC50

For FC(F)(F)CONc1nc2nonc2nc1NOCC(F)(F)F, the EC50 (L6 [1]; l6) was “ND(Insoluble)” and the “%max” value (L6 [2]) was 96.3%.
In the case of c1ccc(Nc2nc3nonc3nc2Nc2ccccn2)nc1, the EC50 (L6 [1]; l6) is reported as “ND(Insoluble)”.
For c1ccc(Nc2nc3nonc3nc2Nc2ccccc2)cc1, the EC50 (L6 [1]; l6) was “ND(Insoluble)” and the “%max” value (L6 [2]) was 172.8%.
For Ic1ccccc1Oc1nc2nonc2nc1Oc1ccccc1I, the EC50 (L6 [1]; l6) was “ND(Insoluble)” and the “%max” value (L6 [2]) was 98.8%.
In the case of Clc1ccc(Nc2nc3nonc3nc2Nc2ccc(Cl)cc2)cc1, the EC50 (L6 [1]; [3]) is reported as 0.27 µM and the “%max” value (L6 [2]) is reported as 190.4%.
In the case of Fc1ccccc1Oc1nc2nonc2nc1Oc1ccccc1F, the EC50 (L6 [1]; l6) is reported as “ND(Insoluble)” and the “%max” value (L6 [2]) is reported as 93%.
With CCONc1nc2nonc2nc1NOCC the EC50 (L6 [1]; l6) was “ND(Insoluble)” and the “%max” value (L6 [2]) was 100%.
In the case of CCCNc1nc2nonc2nc1NCCC, the EC50 (L6 [1]; l6) is reported as “ND(Insoluble)” and the “%max” value (L6 [2]) is reported as 98%.
With Fc1ccc(Nc2nc3nonc3nc2Nc2ccc(F)cc2)cc1 the EC50 (L6 [1]; [3]) was 0.46 µM and the “%max” value (L6 [2]) was 204%.
With Fc1ccc(Nc2nc3nonc3nc2Nc2ccc(F)cc2F)c(F)c1 the EC50 (L6 [1]; [3]) was 0.04 µM and the “%max” value (L6 [2]) was 222.6%.
CCCCCCNc1nc2nonc2nc1NCCCCCC was tested, and the EC50 (L6 [1]; l6) was “ND(Insoluble)” and the “%max” value (L6 [2]) was 160.2%.
In the case of Fc1cccc(Nc2nc3nonc3nc2Nc2cccc(F)c2)c1, the EC50 (L6 [1]; [3]) is reported as 0.18 µM and the “%max” value (L6 [2]) is reported as 220.8%.
With CCCCNc1nc2nonc2nc1NCCCC the EC50 (L6 [1]; l6) was “ND(Insoluble)” and the “%max” value (L6 [2]) was 116%.
In the case of c1ccc(Oc2nc3nonc3nc2Oc2ccccc2)cc1, the EC50 (L6 [1]; l6) is reported as “ND(Insoluble)” and the “%max” value (L6 [2]) is reported as 98.3%.
